Experimental data published in US20260324636A1, “COMPOSITION FOR PROVIDING PLANT WITH STRESS RESISTANCE” (KIRIN HOLDINGS KABUSHIKI KAISHA, priority 2022, published 2026).

Columns and labels:
[1] = system: Arabidopsis thaliana; test: High-temperature stress resistance in pot culture (fresh weight of aboveground part), Example 2; assay type: in vivo, Arabidopsis thaliana (Col-0); conditions: 0.5 mM in tap water, 37° C. for 5 days
Description: (§1) The materials as used in Example 1 were used.
Jiffy-7 (42 mm diameter, Sakata Seed Corporation) was used as culture soil for pot culture. On Jiffy-7 prepared on the Disposable Tray DT-3 (AS ONE CORPORATION), a grain of Arabidopsis thaliana seeds was seeded and the plant was allowed to grow in an artificial climate chamber (Nippon Medical & Chemical Instruments Co., Ltd.) maintained at a temperature of 22° C. for a daily cycle of 16 hours light and 8 hours darkness.
On the third week after seeding, tap water (200 ml) containing 0.5 mM N-acetylglutamic acid was poured on the Disposable Tray. On the fourth week after seeding, the tray was transferred to an artificial climate chamber maintained at a temperature of 37° C. and subjected to the high-temperature treatment. When the tray was dried during the high-temperature treatment, tap water containing 0.5 mM N-acetylglutamic acid was added. The tray was removed from the artificial climate chamber 5 days after the initiation of the high-temperature treatment, and the weight of the aboveground part was measured.

[2] = system: ZAT12; test: ZAT12 gene expression by real-time PCR, Example 11; assay type: in vivo; conditions: Arabidopsis thaliana; 0.4 mM, 22° C. for 2 hours; read-out: ZAT12 expression level, increase vs control
Description: as §1
The medium as used in Example 1 was used.
To the Arabidopsis thaliana plants grown for 7 days in the same manner as in Example 1, 0.4 mM N-acetylglutamic acid or an equivalent amount of sterile water was added, and the plants were incubated at 22° C. for 2 hours. After incubation for 2 hours, the samples were frozen with liquid nitrogen, and RNA was extracted using the RNeasy Plant Mini Kit […].
cDNA that would be necessary as a real-time PCR template was synthesized from the RNA obtained. 1000 ng total RNA was used for each sample, and cDNA was synthesized using the Verso cDNA Synthesis Kit (Thermo Fischer Scientific). The synthesized cDNA was diluted to 5-fold with sterile distilled water and subjected to real-time PCR. For real-time PCR, a reaction solution containing ZAT10 (AGI code: AT1G27730) and ZAT12 (AGI code: AT5G59820) as the target genes, PP2AA3 (AGI code: AT1G13320) as the reference gene, and TB Green Ex Taq II (TakaRa) was prepared. PCR was performed with the use of the LightCycler® 480 System (Roche) with the number of amplification cycles of 50. The primers shown below were used.
(§2) Thereafter, the relative expression levels of the target genes upon N-acetylglutamic acid treatment were calculated by the ΔΔCt method using the Cp values obtained by real-time PCR.

[3] = system: HAC1; test: HAC1 gene expression by real-time PCR, Example 15; assay type: in vivo; conditions: Arabidopsis thaliana; 0.1 mM in medium, 2 hours after application, 22° C.; read-out: HAC1 expression level, increase vs group not subjected to the treatment
Description: The materials as used in Example 14 were used.
A liquid medium containing a ½ Murashige and Skoog Plant Salt Mixture (Nacalai) and 1 (w/v) % sucrose (FUJIFILM Wako) was used as a growth medium.
Arabidopsis thaliana seeds were sterilized with the use of a Kitchen Haiter® liquid (Kao Corporation) diluted to one-half concentration with distilled water for 3 minutes, washed 3 times with sterile distilled water, and then incubated at 4° C. overnight. The growth medium was dispensed at 1 ml/well on a 12-well microplate (IWAKI), 5 grains of the seeds were inoculated in each well, and the plate was transferred to the incubator (TOMY) to initiate growing. The incubator was maintained at a temperature of 22° C. for a daily cycle of 16 hours light and 8 hours darkness.
N-acetylglutamic acid was applied to Arabidopsis thaliana 7 days after inoculation to the final concentration of 0.1 mM in the medium, followed by incubation for 2 hours or 6 hours. The incubator was maintained at a temperature of 22° C. for a daily cycle of 16 hours light and 8 hours darkness. After incubation, the samples were frozen with liquid nitrogen, and RNA was extracted using the RNeasy Plant Mini Kit […]. […]
as §2

CC(=O)N[C@@H](CCC(=O)O)C(=O)O [N-acetylglutamic acid]
fresh weight of the aboveground part, increase relative to the control group [1]: 1.3 times | fold induction at 400 µM [2]: 37 | fold induction at 100 µM [3]: 1.2
